Measured values published in patent US20100284984A1, “ADENOSINE AND ITS MIMETICS. MODULATORS, TRANSPORT INHIBITORS, AND RECEPTOR AGONISTS AS A THERAPEUTIC TOOL TO REPLACE OR IMPROVE THE EFFICACY OF DEEP BRAIN STIMULATION” (University of Rochester, priority 2007, published 2010).
“Also recorded” adds a separate entry of the source.

Experiments:
Ecto-ATPase [1] = conditions: Drakulich et al.; cited from earlier work
thalamic neurons = test: HFS-induced depression of eEPSPs in thalamic slices, pharmacology; type: cell-based, mouse; conditions: 50 μM; HFS 250 μA, 100 μs, 5 sec, 20° C.
P2 receptors = conditions: cited from earlier work
thalamic slices = test: Extracellular adenosine by biosensor during HFS of thalamic slices; type: cell-based, mouse; conditions: 50 μM
Experimental: Thalamic slices (300 μm) from 14-18 day old mouse pups (FVB/NJ mice; Jackson Laboratory) were cut on a Vibratome (TPI) in an ice-cold cutting solution containing (in mM): 2.5 KCl, 1.25 NaH2PO4, 10 MgSO4, 5 CaCl2, 10 glucose, 26 NaHCO3, 230 sucrose and gassed with 5% CO2 and 95% O2. Slices were incubated for a minimum of 1 hr in a slice solution containing (in mM): 126 NaCl, 2.5 KCl, 1.25 NaH2PO4, 2 MgCl2, 2 CaCl2, 10 glucose, and 26 NaHCO3, pH 7.4, and gassed with 5% CO2 and 95% O2 at room temperature. The slices were transferred to a recording chamber (1.5 ml) perfused with aCSF at room temperature or 32° C. Whole-cell current clamp recordings were obtained using a 700B Multiclamp amplifier (Axon Instruments) (Jiang et al., “A Kainate Receptor Increases The Efficacy of Gabaergic Synapses,” Neuron 30:503-13 (2001); Tian et al., “An Astrocytic Basis of Epilepsy,” Nat Med 11:973-81 (2005), which are hereby incorporated by reference in their entirety). Concentric bipolar stimulating electrodes (FHC) were placed ˜100-400 μm ventromedial to the patched VL thalamic neuron. […] Adenosine measurements were detected using needle shaped electrode (Pt/Ir wire) biosensors (Sarissa Biomedical). […]

Rat Parotid Ecto-ATPase = conditions: Dowd et al.; cited from earlier work
Ecto-ATPase [2] = conditions: Crack et al.; cited from earlier work

CCN(CC)c1ncnc2c1ncn2C1OC(COP(=O)(O)OP(=O)(O)C(Br)(Br)P(=O)(O)O)C(O)C1O [ARL67156, 6-N,N-diethyl-D-beta, gamma-dibromomethyleneATP]
Ki (Ecto-ATPase [1]): 0.255 µM
effect on HFS-induced depression of eEPSPs (FIG. 3G) (thalamic neurons): attenuated HFS-induced depression of eEPSPs
effect on P2 receptors (P2 receptors): lack of or only has weak effect
HFS-induced increase in extracellular adenosine (thalamic slices): reduction in the HFS-induced adenosine increase
HFS-induced increase in extracellular adenosine (thalamic slices; listed as ARL): reduced adenosine increases during HFS; also recorded: did not completely block the rise in adenosine
IC50 (Rat Parotid Ecto-ATPase): 120 µM
IC50 (Ecto-ATPase [2]): 4.6 µM
